From US8263567B2, “Treatment of hyperproliferative conditions of body surfaces” (Valderm APS, priority 2001, dated 2012)

Legend:
[1] = cited from earlier work
[2] = 40 mg/ml intravesical instillation of two hours, 6 times once a week; cited from earlier work
[3] = system: DNA Synthesis; settings: grade and speed (rapid/slow); cited from earlier work
[4] = compared to other anthracyclines; cited from earlier work
[5] = system: psoriasis vulgaris; test: Clinical trial, topical therapy of psoriasis vulgaris (Examples 11-16); format: in vivo, human
Description: A patient having dermal manifestations of psoriasis vulgaris was selected for therapy using the invention. Valrubicin was prepared as a solution (ref ex, 5) at a concentration of 2% (weight/weight) and was applied to the affected skin once daily. The patient was monitored for improvement in their manifestations of psoriasis. […] A patient having dermal manifestations of psoriasis vulgaris was selected for therapy using the invention. Valrubicin was prepared as a solution (ref ex. 8) at a concentration of 0.5% (weight/weight) and was applied to the affected skin once daily. The patient was monitored for improvement in their manifestations of psoriasis. […] A patient having dermal manifestations of psoriasis vulgaris was selected for therapy using the invention. Valrubicin was prepared as a gel (ref ex. 6) at a concentration of 1% (weight/weight) and was applied to the affected skin once daily. The patient was monitored for improvement in their manifestations of psoriasis. […] A patient having dermal manifestations of psoriasis vulgaris was selected for therapy using the invention. Valrubicin was prepared as a solution (ref. ex 5) at a concentration of 2.0% (weight/weight) and was applied to the affected skin twice daily. The patient was monitored for improvement in their manifestations of psoriasis. […] A patient having dermal manifestations of psoriasis vulgaris was selected for therapy using the invention. Valrubicin was prepared as a solution (ref. ex 5) at a concentration of 2.0 (weight/weight) and was applied to the affected skin twice a week. The patient was monitored for improvement in their manifestations of psoriasis. […] A patient having dermal manifestations of psoriasis vulgaris was selected for therapy using the invention. Valrubicin was prepared as a solution (ref. ex 5) at a concentration of 2.0% (weight/weight) and was applied to the affected skin once a week. The patient was monitored for improvement in their manifestations of psoriasis.

[6] = concentration similar to that used in treatment of bladder cancer; cited from earlier work
[7] = system: normal dermal epithelium; settings: histopathological animal experiments; cited from earlier work
[8] = in vivo; cited from earlier work
[9] = system: RNA Synthesis; settings: grade and speed (rapid/slow); cited from earlier work
[10] = paravenous injection; cited from earlier work

CCCCC(=O)OCC(=O)[C@]1(O)Cc2c(O)c3c(c(O)c2[C@@H](O[C@H]2C[C@H](NC(=O)C(F)(F)F)[C@H](O)[C@H](C)O2)C1)C(=O)c1c(OC)cccc1C3=O [Valrubicin, N-trifluoroacetyladriamycin-14-valerate]
In vivo elimination [1]: rapid
In vivo metabolism [1]: Extensive
Depth into the epithelium of the bladder at which an effective concentration is found [2]: 1800 μm
Systemic uptake [2]: does not result in systemic uptake
DNA Synthesis inhibition [3]: +++ (rapid)
Lipophilicity [4]: very lipophilic
Skin lesions of psoriasis ([5]; gel (ex. 6) 1% w/w, once daily): skin lesions had subsided
Skin lesions of psoriasis ([5]; solution (ex. 5) 2.0% w/w, once a week): skin lesions had subsided
Skin lesions of psoriasis ([5]; solution (ex. 5) 2% w/w, once daily): skin lesions had subsided
Skin lesions of psoriasis ([5]; solution (ex. 5) 2.0% w/w, twice daily): skin lesions had subsided
Skin lesions of psoriasis ([5]; solution (ex. 5) 2.0 (weight/weight), twice a week): skin lesions had subsided
Skin lesions of psoriasis ([5]; solution (ex. 8) 0.5% w/w, once daily): skin lesions had subsided
Irritation of skin and eyes [6]: mild to no irritation
Effect on normal dermal epithelium [7]: does not affect normal dermal epithelium
Cardiotoxicity and haematological toxicity versus other anthracyclines [8]: less cardiotoxic and haematologically toxic
RNA Synthesis inhibition [9]: +++ (rapid)

COc1cccc2c1C(=O)c1c(O)c3c(c(O)c1C2=O)C[C@@](O)(C(=O)CO)C[C@@H]3O[C@H]1C[C@H](N)[C@@H](O)[C@H](C)O1 [epirubicin]
Local tissue toxicity [10]: severe necrosis

COc1cccc2c1C(=O)c1c(O)c3c(c(O)c1C2=O)C[C@@](O)(C(=O)CO)C[C@@H]3O[C@H]1C[C@H](N)[C@H](O)[C@H](C)O1 [Doxorubicin]
In vivo elimination [1]: Slow
In vivo metabolism [1]: Minimal
DNA Synthesis inhibition [3]: +++ (slow)
RNA Synthesis inhibition [9]: + (slow)
